In ChEMBL document CHEMBL3507680, “University of Dundee, Gates Library screen for HepG2 cell viability”:

Test: Human HepG2 cell viability assay in 384 well format
Assay type: toxicity, cell-based
Parameters: dose 125 nL, time 70.5 hour; cytotoxicity at 70.5 h: concentration not given beside the values
Conditions: HepG2 cells, read-out: Inhibition

| Compound | cytotoxicity at 70.5 h [%] |
| --- | --- |
| CC(C)[C@@H]1CN(CC(=O)NCc2ccco2)C[C@H]1NS(=O)(=O)N(C)C | -3.9 |
| COc1ccccc1CC(=O)NS(=O)(=O)c1ccc(C#N)cc1 | 4.13 |
| O=C(c1ccoc1)N1CCC2(CCCN(c3ncc(F)cn3)C2)C1 (stereo not drawn) | -1.48 |
| CCn1cc(NC(=O)NCCc2ccc3c(c2)OCO3)cn1 | -10.2 |
| CC(C)NC(=O)C1CN(C(=O)NCc2ccccc2)CC12CCOCC2 (stereo not drawn) | 1.12 |
| CC(C)c1nc2c(n1C)CCN(CC(=O)Nc1nccs1)C2 | -24.8 |
| Cc1cc(CN(C)C(=O)NC2CCCN(c3ncccn3)C2)no1 (stereo not drawn) | -3.61 |
| CS(=O)(=O)N1CCO[C@@H]2CN(Cc3ccncc3)C[C@@H]2C1 | -5.73 |
| Cc1ccsc1C(=O)N1CCn2cnc(COCC3CC3)c2C1 | -4.7 |
| CN(CC(=O)NC1CCOCC1)C1CCCN(c2cccnn2)C1 (stereo not drawn) | -2.74 |
| COc1cccc(-n2c(C)cc(C(=O)NC(C)(C)C(N)=O)c2C)c1 | -15.2 |
| O=C1CCC(c2ccc(Cl)cc2)=NN1CN1CCSCC1 | -15.1 |
| Cc1ccc(C(O)CN2CCN(Cc3nccn3C)CC2)cc1C (stereo not drawn) | 2 |
| O=C(CCc1nnc2ccccn2c1=O)NCc1ccc2c(c1)OCO2 | 25.1 |
| Clc1cc(Cl)cc(CN2CCC(NCc3cc[nH]n3)CC2)c1 | -4.79 |
| CC[C@H]1COCCN1C(=O)CCCn1nnc(-c2ccc(F)cc2)n1 | -1.69 |
| Cn1cc(-c2ncc3c(c2C(=O)O)CCN(CC2CCOC2)C3)cn1 (stereo not drawn) | -3.12 |
| Cc1cc(C)cc(N2CCN(Cc3cccc(CCN)c3)CC2=O)c1 | -2.46 |
| Cc1nn(C)cc1CN1CCCC(n2c(=O)oc3ccccc32)C1 (stereo not drawn) | 0.702 |
| Cc1sc2c(C3CCCN(C(C)C)C3)nc(C)n2c1C (stereo not drawn) | -3.36 |
| Cc1n[nH]cc1CNc1ccc2c(c1)CN(C(=O)OC(C)(C)C)CC2 | -6.16 |
| Cc1cccc(NCc2ncc(C(C)(C)C)o2)c1 | 12.6 |
| O=C(c1ccsc1)N1CCc2ncc(Cn3cncn3)n2CC1 | -14.2 |

| Compound | cytotoxicity at 70.5 h [%] |
| --- | --- |
| Cc1nccc(-c2cccc(NCc3nc(C(C)C)no3)c2)n1 | -10.6 |
| COc1c(CNCc2cccc(Cn3ccnc3)c2)c(C)nn1C | -1.14 |
| CCN(CC1CCOC1)C(=O)c1cnc2onc(C)c2c1 (stereo not drawn) | -8.61 |
| CCn1ccnc1CN(C)C1CCCN(CCCc2ccccc2)C1 (stereo not drawn) | 18.6 |
| CC(=O)N1CCO[C@H]2[C@H](OCCCn3cccn3)CC[C@@H]21 | -3.12 |
| Cn1ccnc1C1CCN(S(=O)(=O)c2ccc3oc(=O)[nH]c3c2)CC1 | -9.3 |
| Cc1cnn(CC2CN(CC(=O)N3CCc4ccccc43)CCO2)c1 (stereo not drawn) | -10.9 |
| CCCn1ncc(C(=O)NC2CCN(C3CCOCC3)CC2)c1C | -2.11 |
| Cc1ccc(CNCCN2CCOCC2)o1 | 8.67 |
| COc1cccc(CN2CCC3(CCN(c4ncc(F)cn4)CC3)C2)c1 | 0.663 |
| Cc1nn(C)c2ncnc(N3CCCC(OCc4cccnc4)C3)c12 (stereo not drawn) | -3.45 |
| Cc1ccc2oc(C(=O)N3CCCC(n4nc(C)nc4C)C3)cc2n1 (stereo not drawn) | -9.11 |
| O=C(CCn1ccccc1=O)N1CCN(Cc2cccc(Cl)c2)CC1 | -12.6 |
| Cc1cc(C)n(CCCC(=O)N2CC[C@H]3NCCC[C@]3(CO)C2)n1 | -2.14 |
| CCOCC1CN(CC2CC2)Cc2nn(CC3CC3)cc21 (stereo not drawn) | 6.53 |
| COCCNc1ccc(CC2CCCN(Cc3c[nH]cn3)C2)nn1 (stereo not drawn) | -0.712 |
| c1ccc(N2CCOCC3(CCCN(c4nccs4)C3)C2)nc1 (stereo not drawn) | 4.3 |
| Cn1nnnc1SC1CCN(c2ccccc2Cl)C1=O (stereo not drawn) | -2.66 |
| Cc1cccc(NC(=O)c2csc(NCC(C)C)n2)n1 | -14.8 |
| Cc1nn(C)cc1-c1cc(C(=O)NCC(C)(C)c2ccccc2F)n[nH]1 | 17.9 |
| Cc1noc([C@]23COC[C@H]2CN(C(=O)N2CCCC2)C3)n1 | -6.89 |
| COCCN1CCN(CC2(O)CCCCC2)CC1 | -0.488 |
| CCOCC1CN(CC2CC2)Cc2cnn(C)c21 (stereo not drawn) | -8.87 |

| Compound | cytotoxicity at 70.5 h [%] |
| --- | --- |
| CC(C)CCCNC(=O)Nc1ccc(C(N)=O)c(Cl)c1 | -4.82 |
| COCc1nnc(C(=O)N2CCC(N3CCCCC3)CC2)o1 | 16.4 |
| Cc1ccc2c(c1)OCCCC2NCc1nccn1Cc1ccccc1 (stereo not drawn) | -6.01 |
| c1cc(C2CCN(Cc3nc(-c4ccsc4)no3)CC2)[nH]n1 | -3.49 |
| CN(CCCc1cc(-c2ccc(F)cc2)n(C)n1)CC(N)=O | -11.3 |
| CN(C)CCN1CC2(CCN(C(=O)c3cnccn3)CC2)OC1=O | -2.71 |
| CCc1cnc(N2C[C@@H](NC(=O)c3cscn3)[C@H]3COC[C@H]32)nc1 | -11.1 |
| O=c1c(CN2CCCCCC2)coc(O)c1CN1CCCCCC1 | -4.84 |
| COCC(=O)N1CCC2(CCN(Cc3ccc(C)cc3)CC2)CC1 | -11.5 |
| COCCc1noc(C2CCN(C(=O)Nc3cccs3)CC2)n1 | -4.24 |
| CCN1CC2(CC1=O)CN(C(=O)c1cccs1)CCN(C(=O)N(C)C)C2 (stereo not drawn) | -1.77 |
| CCCc1ccc(CN2C[C@H]3C(=O)N(CC4CC4)C[C@@]3(C(=O)O)C2)o1 | -6.58 |
| COC(=O)C(CCSC)NC(=O)Cc1c(C)nn(-c2ccccc2)c1C (stereo not drawn) | 1.93 |
| COCC1CC2(CCN(Cc3ccoc3)CC2)CN1C(C)C (stereo not drawn) | -9.47 |
| CC(C)NC(=O)N1CCOC2(CCCNC2)C1 (stereo not drawn) | 4.28 |
| CSCCC1c2nc[nH]c2CCN1Cc1ccnc2ccccc12 (stereo not drawn) | -12.3 |
| C[C@@H](NC(=O)c1cccs1)c1onc(-c2cccnc2)c1C(=O)O | 2.92 |
| Cc1nc(Nc2ncccn2)cc(C2CN(C(=O)c3cccnc3)C2)n1 | -8.6 |
| COc1ccc(Cl)cc1C(=O)NCC1CCN(C(=O)c2ccoc2)CC1 | -15.3 |
| OC(c1ccccn1)C1CCN(Cc2cc3n(n2)CCCNC3)CC1 (stereo not drawn) | -21 |
| CN1CCN(Cc2cccnc2)Cc2cccnc21 | -7.13 |
| COCC1c2nnn(CC3CC3)c2CCN1C(=O)c1ccncn1 (stereo not drawn) | 9.24 |
| Cc1cccc(C)c1OCC(O)CNCc1c(C)nn(C)c1N(C)C (stereo not drawn) | -4.45 |

| Compound | cytotoxicity at 70.5 h [%] |
| --- | --- |
| COCCN1C(=O)C[C@H]2[C@H]1CCN2Cc1ccccc1 | -4.06 |
| CN1CC(=O)N(c2cccc(F)c2)CC12CCN(S(C)(=O)=O)C2 (stereo not drawn) | -10.7 |
| CC(=O)NCCCC(=O)NC(C)c1nnc2n1CCC2 (stereo not drawn) | -11.1 |
| Cc1nccn1C1CCCN(C(=O)c2cccc(S(C)(=O)=O)c2)C1 (stereo not drawn) | -11.1 |
| Cn1ccnc1C(NCc1ccc(Br)cc1)c1ccccc1 (stereo not drawn) | -0.0759 |
| Cc1cc2c(=O)n3c(nc2s1)CCN(C(=O)c1cn(C)nc1C)CC3 | -1.48 |
| CCc1nccn1C1CCCN(C(=O)c2ccc(NC3CC3)nc2)C1 (stereo not drawn) | -2.23 |
| CCOC(=O)Cc1csc(NC(=O)c2cc3n(n2)CCCO3)n1 | -2.3 |
| CC(C(=O)NC(C)(C)C)N1CCC(C(=O)Nc2cnccn2)CC1 (stereo not drawn) | -8.75 |
| CC(C)CNC(=O)c1cc(Br)c2c(c1)OCCO2 | -7.77 |
| CN(C)c1nc(NCCc2ccccn2)ncc1F | 25.5 |
| CCn1nc(C)c2ncnc(NCCN3CCOCC3)c21 | -3.9 |
| Cc1cn(-c2ccccc2)nc1NS(=O)(=O)c1cc(C(=O)O)sc1C | -18.9 |
| Cc1ccc2[nH]c(CN(C)Cc3n[nH]c4c3CCC4)nc2c1 | -3.51 |
| O=C(O)CN1CCOCC(Cc2ccc(Cl)cc2)C1 (stereo not drawn) | -7.85 |
| CCN(CC)C(=O)CN1CCC(c2nc(C)c3c(n2)N(C)CCC3)CC1 | 17.6 |
| Cc1noc(C(C)N2CCN(Cc3nnc(C4CC4)o3)CC2)n1 (stereo not drawn) | -3.98 |
| O=C(NCc1nncn1-c1ccccc1)C1CC1 | -1.31 |
| O=C(c1cccc(Oc2ccccc2)c1)N1CCCC(O)(CO)CC1 (stereo not drawn) | -8.12 |
| CN(Cc1ccco1)Cc1ccccc1CNC(=O)c1cnccn1 | -6.66 |
| COc1cc(CNc2ccc(Cl)cc2)ccc1OCC(=O)O | -19.8 |
| O=C(c1ccc2nncn2c1)N1CCCC1c1noc(C2CC2)n1 (stereo not drawn) | -7.81 |
| CCS(=O)(=O)N1C[C@H]2CN(Cc3cccc(C)c3)C(=O)[C@H]2C1 | -10.5 |

| Compound | cytotoxicity at 70.5 h [%] |
| --- | --- |
| O=C(NCC1CC1)Nc1ccc(OCC(F)(F)F)nc1 | -9.95 |
| CC(Nc1cccc(F)c1C#N)c1cccc(S(N)(=O)=O)c1 (stereo not drawn) | -8.67 |
| c1ccc(O[C@H]2COCCN(Cc3cccc4c3OCO4)C2)cc1 | -1.37 |
| Cc1[nH]c(=O)sc1S(=O)(=O)N1CCCC1C(=O)NC1CC1 (stereo not drawn) | -6.92 |
| Cc1cccc(C(C)(C)CNc2cn[nH]c(=O)c2Cl)c1 | 18.4 |
| Fc1cccc(CN2C[C@@H]3COC[C@]3(COCc3ccncc3)C2)c1 | -1.32 |
| Cc1nc(C(C)NC(=O)COc2ccc(F)cc2)n[nH]1 (stereo not drawn) | -7.22 |
| O=C(NC1CC1)N1CCc2ccc(=O)n(Cc3ccncc3)c2CC1 | 12.1 |
| COCCN(C)Cc1cn(C)nc1-c1ccc2c(c1)OCCO2 | -7.93 |
| Cc1ccc(NC(=O)C2CCc3ccccc3N2)cc1 (stereo not drawn) | 15.2 |
| CC(=O)N1CC(=O)N(c2ccsc2)CC12CCN(Cc1ccccn1)C2 (stereo not drawn) | -6.8 |
| O=C(Cc1ccccn1)N1CCC(O)(Cn2ccc3ccncc32)CC1 | -6.87 |
| Cc1ccc(C)c2c(C)c(C(=O)NCCCn3ccnn3)[nH]c12 | 43.6 |
| CCCn1ncc(CN2CCCC(C(=O)c3ccc(Cl)cc3C)C2)c1C (stereo not drawn) | -7.11 |
| CCOC(=O)CC1CCCCN1C(=O)c1cnc(C)cn1 (stereo not drawn) | -4.78 |
| CN1C(=O)CCCC12CCCN(C(=O)c1cc(F)cc(F)c1)C2 (stereo not drawn) | -9.55 |
| CC(=O)N1CCN([C@@H]2CN(C(=O)Cc3ccccc3C)C[C@H]2O)CC1 | -2.44 |
| CC(=O)N1CCC(Nc2cc(F)ccc2OCC2CCCO2)CC1 (stereo not drawn) | 11.4 |
| CCc1nc(C2CCCN2Cc2cc(=O)n(C)c(=O)n2C)no1 (stereo not drawn) | -16.4 |
| Cc1[nH]nc(CCC(=O)N2CCOC(CCc3ccccc3)C2)c1C (stereo not drawn) | -0.521 |
| CC(C)c1nccn1C1CCCN(C(=O)c2nccnc2N)C1 (stereo not drawn) | 17.2 |
